The target of one assay is T1, PDK1 (Homo sapiens, UniProt O15530).
T1 construct: His6 (N)
T1 sequence (O15530 51-556 limits assumed): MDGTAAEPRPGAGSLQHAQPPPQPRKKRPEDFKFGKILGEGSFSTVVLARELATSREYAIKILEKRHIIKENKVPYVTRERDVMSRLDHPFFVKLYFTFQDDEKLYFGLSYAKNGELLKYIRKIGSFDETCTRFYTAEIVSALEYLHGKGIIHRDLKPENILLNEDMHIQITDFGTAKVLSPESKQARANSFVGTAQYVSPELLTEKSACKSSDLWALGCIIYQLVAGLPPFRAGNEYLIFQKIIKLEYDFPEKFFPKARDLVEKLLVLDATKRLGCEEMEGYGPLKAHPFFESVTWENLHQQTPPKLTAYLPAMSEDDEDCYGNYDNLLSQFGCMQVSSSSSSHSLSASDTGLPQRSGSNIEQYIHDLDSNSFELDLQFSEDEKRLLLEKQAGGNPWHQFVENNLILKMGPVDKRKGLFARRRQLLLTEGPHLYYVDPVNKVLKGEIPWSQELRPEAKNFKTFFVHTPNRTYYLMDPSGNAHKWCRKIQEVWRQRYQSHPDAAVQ
Briefly: Test for the inhibition of PDK1 (flashplate, 33P-ATP). Type of assay: biochemical. Conditions: His6-PDK1 3.4 nM, 4 μM ATP, 30° C., 60 min. In a few lines:
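His6-PDK1(1-50) (3.4 nM) and a biotinylated peptide substrate (400 nM) were incubated 60 min at 30° C with 4 μM ATP containing ^33P-ATP and test compound. Incorporated radioactivity was counted after subtracting a 100 nM staurosporine blank and expressed as % of control; IC50 derived from these.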

Assay [1] has as its system PDK1 kinase activity (phospho-T308-PKB) in PC3 cells. Briefly: Cellular testing of PDK1 kinase inhibitors in PC3 cells (Luminex, phospho-T308-PKB). Type of assay: cell-based. Conditions: Homo sapiens, PC-3, 0.5 h, 30 min incubation, serum-free, read-out: IC50 PC3 cells [P-PKB T308]. On the procedure:
Method for the Cellular Testing of PDK1 Kinase Inhibitors in PC3 Cells.
The cellular assay for the determination of the PDK1 kinase activity is carried out as a Luminex assay in the 96-well format. PC3 cells are shown at 20,000 cells per well in 100 μl of medium (45% of […]/45% of Ham's F12/10% of FCS) and incubated on the following day for 30 min with a serial dilution of the test substance (7 concentrations) under serum-free conditions. The cells are subsequently lysed using 90 μl of lysis buffer (20 mM tris/HCl pH 8.0, 150 mM NaCl, 1% of NP40, 10% of glycerol, 1% of phosphatase inhibitor I, 1% of phosphatase inhibitor II, 0.1% of protease inhibitor cocktail III, 0.01% of benzonase) per well, and the lysates are separated off from insoluble cell constituents by means of centrifugation through a 96-well filter plate (0.65 μm). The lysates are incubated overnight at 4° C. with shaking with Luminex beads to which an anti-total PKB antibody is coupled. The detection is carried out on the following day by addition of a phospho-T308-PKB antibody and a species-specific peroxidase-labelled secondary antibody. The detection of phospho-T308-PKB is carried out by measurement in a Luminex100 instrument by determination of 100 events per cavity in a measurement time of 60 sec. As pharmacological blank, the signals obtained from cells which have been treated with 10 μM staurosporin are subtracted from all other batches. The control value used for maximum phosphorylation of PKB on T308 are the signals from cells which have only been treated with the solvent (0.3% of DMSO). The values of the batches treated with test substance are calculated therefrom as percentage of control, and IC50 values are determined by means of RS1.

One may read the IC50 as the concentration at which inhibition is half-maximal. With `CCC(O)(c1ccncc1)c1cc(-c2c[nH]c3ncc(-c4cn[nH]c4)cc23)nc(N)n1` (stereo not shown) [A53, 1-{2-amino-6-[5-(1H-pyrazol-4-yl)-1H-pyrrolo[2,3-b]pyridin-3-yl]pyrimidin-4-yl}-1-pyridin-4-ylpropan-1-ol], the IC50 against PDK1 turned out to be 1.9 nM; in assay [1], 692 nM.

As for `Cn1cc(-c2cnc3[nH]cc(-c4cc(C(O)(c5ccccc5)C(F)(F)F)nc(N)n4)c3c2)cn1` (stereo not shown) [A69, 1-{2-amino-6-[5-(1-methyl-1H-pyrazol-4-yl)-1H-pyrrolo[2,3-b]pyridin-3-yl]-pyrimidin-4-yl}-2,2,2-trifluoro-1-phenylethanol], the results for the IC50 (against PDK1; in assay [1]) were 150 nM and 240 nM, respectively.

As for `Cn1cc(-c2cnc3[nH]cc(-c4cc(C(C)(O)c5cccc(F)c5)nc(N)n4)c3c2)cn1` (stereo not shown) [A105, 1-{2-amino-6-[5-(1-methyl-1H-pyrazol-4-yl)-1H-pyrrolo[2,3-b]pyridin-3-yl]-pyrimidin-4-yl}-1-(3-fluorophenyl)ethanol], the IC50 came to 13 nM against PDK1 and 110 nM in assay [1].

Turning to `Cn1cc(-c2cnc3[nH]cc(-c4cc(C(C)(O)c5cccc(F)c5)nc(N)n4)c3c2F)cn1` (stereo not shown) [A106, 1-{2-amino-6-[4-fluoro-5-(1-methyl-1H-pyrazol-4-yl)-1H-pyrrolo-[2,3-b]pyridin-3-yl]pyrimidin-4-yl}-1-(3-fluorophenyl)ethanol], the results for the IC50 (at PDK1; in assay [1]) were 26 nM and 5.1 nM, respectively.

In the case of `CCC(O)(c1cc[n+]([O-])cc1)c1cc(-c2c[nH]c3ncc(-c4cnn(C)c4)cc23)nc(N)n1` (stereo not shown) [A110, 1-{2-amino-6-[5-(1-methyl-1H-pyrazol-4-yl)-1H-pyrrolo[2,3-b]pyridin-3-yl]-pyrimidin-4-yl}-1-(1-oxypyridin-4-yl)propan-1-ol], the figures for the IC50 (against PDK1; in assay [1]) were 5.4 nM and 8200 nM, respectively.

For `COc1ccc(C(C)(O)c2cc(-c3c[nH]c4ncc(-c5cnn(C)c5)cc34)nc(N)n2)cn1` (stereo not shown) [A112, 1-{2-amino-6-[5-(1-methyl-1H-pyrazol-4-yl)-1H-pyrrolo[2,3-b]pyridin-3-yl]-pyrimidin-4-yl}-1-(6-methoxypyridin-3-yl)ethanol], the IC50 on PDK1 came to 120 nM; in assay [1], 1300 nM.

Take `Cn1cc(-c2cnc3[nH]cc(-c4cc(C(C)(O)c5ccncn5)nc(N)n4)c3c2)cn1` (stereo not shown) [A113, 1-{2-amino-6-[5-(1-methyl-1H-pyrazol-4-yl)-1H-pyrrolo[2,3-b]pyridin-3-yl]-pyrimidin-4-yl}-1-pyrimidin-4-ylethanol]: the IC50 was determined as 31 nM against PDK1 and 7300 nM in assay [1].

As for `CC(C)n1cc(-c2cnc3[nH]cc(-c4cc(C(C)(O)c5cccc(F)c5F)nc(N)n4)c3c2)cn1` (stereo not shown) [A114, 1-{2-amino-6-[5-(1-isopropyl-1H-pyrazol-4-yl)-1H-pyrrolo[2,3-b]pyridin-3-yl]-pyrimidin-4-yl}-1-(2,3-difluorophenyl)ethanol], the values for the IC50 (against PDK1; in assay [1]) were 39 nM and 14 nM, respectively.

`CC(C)C(O)(c1cccc(F)c1)c1cc(-c2c[nH]c3ncc(-c4cnn(C)c4)cc23)nc(N)n1` (stereo not shown) [A115, 1-{2-amino-6-[5-(1-methyl-1H-pyrazol-4-yl)-1H-pyrrolo[2,3-b]pyridin-3-yl]-pyrimidin-4-yl}-1-(3-fluorophenyl)-2-methylpropan-1-ol]: the concentration for half-maximal inhibition (IC50) came to 56 nM on PDK1 and 110 nM in assay [1].

As for `CCCC(O)(c1cccc(F)c1)c1cc(-c2c[nH]c3ncc(-c4cnn(C)c4)cc23)nc(N)n1` (stereo not shown) [A116, 1-{2-amino-6-[5-(1-methyl-1H-pyrazol-4-yl)-1H-pyrrolo[2,3-b]pyridin-3-yl]-pyrimidin-4-yl}-1-(3-fluorophenyl)butan-1-ol], the values for the IC50 (against PDK1; in assay [1]) were 44 nM and 280 nM, respectively.

As for `CCCC(OCOC)(c1cccc(F)c1)c1cc(-c2c[nH]c3ncc(-c4cnn(C)c4)cc23)nc(N)n1` (stereo not shown) [A117, 4-[1-(3-fluorophenyl)-1-methoxymethoxybutyl]-6-[5-(1-methyl-1H-pyrazol-4-yl)-1H-pyrrolo[2,3-b]pyridin-3-yl]pyrimidin-2-ylamine], the values for the IC50 (against PDK1; in assay [1]) were 450 nM and 980 nM, respectively.

For `CCCC(O)(c1cc(-c2c[nH]c3ncc(-c4cnn(C)c4)cc23)nc(N)n1)c1ccccc1F` (stereo not shown) [A118, 1-{2-amino-6-[5-(1-methyl-1H-pyrazol-4-yl)-1H-pyrrolo[2,3-b]pyridin-3-yl]-pyrimidin-4-yl}-1-(2-fluorophenyl)butan-1-ol], the IC50 on PDK1 is 29 nM; in assay [1], 240 nM.

`COCOC(C)(c1cc(-c2c[nH]c3ncc(-c4cnn(C)c4)cc23)nc(N)n1)c1ccccc1F` (stereo not shown) [A119, 4-[1-(2-fluorophenyl)-1-methoxymethoxyethyl]-6-[5-(1-methyl-1H-pyrazol-4-yl)-1H-pyrrolo[2,3-b]pyridin-3-yl]pyrimidin-2-ylamine]: the IC50 was 36 nM at PDK1 and 470 nM in assay [1].

Turning to `CC(O)(c1cccc(F)c1)c1cc(-c2c[nH]c3ncc(-c4cnn(C(C)(C)C)c4)cc23)nc(N)n1` (stereo not shown) [A120, 1-{2-amino-6-[5-(1-tert-butyl-1H-pyrazol-4-yl)-1H-pyrrolo[2,3-b]pyridin-3-yl]-pyrimidin-4-yl}-1-(3-fluorophenyl)ethanol], the half-maximal inhibitory concentration (IC50) on PDK1 was determined as 250 nM; in assay [1], 1100 nM.

The values are drawn from patent US8575163B2, “Pyrrolopyridinylpyrimidin-2-ylamine derivatives” (Merck Patent GmbH, priority 2009, dated 2013).
